According to PubChem BioAssay AID1963828 (Molecular Pharmacology Branch, DTP, NCI, 2024):

Test system: 991263-137-R1-J2-PDC complex spheroid viability
Assay: Anticancer human tumor 991263-137-R1-J2-PDC patient-derived colon adenocarcinoma cell line growth inhibition [POLQ]
Settings: for IC50: curve of first compound; for viability, T/C: stronger effect = lower value
Method in brief: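 Complex spheroid viability model combining PDC tumour cells with endothelial (HUVEC) and MSC stromal cells. Novobiocin, ART-558 or RP6685 were tested singly and in combination with standard and investigational anticancer drugs. Each was titrated in half-log steps from near clinical Cmax, or from 10 microM where Cmax was unknown.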
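Also: spheroids exposed to compounds for 7 days before readout.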
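For viability, T/C in this document: 100% = DMSO vehicle control viability.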

Cn1ncnc1[C@H]1c2n[nH]c(=O)c3cc(F)cc(c23)N[C@@H]1c1ccc(F)cc1 + Nc1ccc(C#CCN(C(=O)Cc2ncc(C(F)(F)F)cc2C(F)(F)F)c2ccc(F)cc2)nn1
IC50 (second compound 0.0316 µM): > 100 nM
IC50 (second compound 0.1 µM): > 100 nM
IC50 (second compound 0.316 µM): > 100 nM
IC50 (second compound 1 µM): > 100 nM
IC50 (second compound 3.16 µM): > 100 nM
IC50 (second compound 10 µM): > 100 nM
viability, T/C (second compound 0.0316 µM, first compound 0.000316 µM): 106%
viability, T/C (second compound 0.0316 µM, first compound 0.001 µM): 97.1%
viability, T/C (second compound 0.0316 µM, first compound 0.00316 µM): 99.6%
viability, T/C (second compound 0.0316 µM, first compound 0.01 µM): 98.8%
viability, T/C (second compound 0.0316 µM, first compound 0.0316 µM): 106%
viability, T/C (second compound 0.0316 µM, first compound 0.1 µM): 94%
viability, T/C (second compound 0.1 µM, first compound 0.000316 µM): 99.1%
viability, T/C (second compound 0.1 µM, first compound 0.001 µM): 102%
viability, T/C (second compound 0.1 µM, first compound 0.00316 µM): 95.2%
viability, T/C (second compound 0.1 µM, first compound 0.01 µM): 107%
viability, T/C (second compound 0.1 µM, first compound 0.0316 µM): 106%
viability, T/C (second compound 0.1 µM, first compound 0.1 µM): 110%
viability, T/C (second compound 0.316 µM, first compound 0.000316 µM): 93.7%
viability, T/C (second compound 0.316 µM, first compound 0.001 µM): 95.1%
viability, T/C (second compound 0.316 µM, first compound 0.00316 µM): 94.2%
viability, T/C (second compound 0.316 µM, first compound 0.01 µM): 105%
viability, T/C (second compound 0.316 µM, first compound 0.0316 µM): 109%
viability, T/C (second compound 0.316 µM, first compound 0.1 µM): 82.9%
viability, T/C (second compound 1 µM, first compound 0.000316 µM): 96.8%
viability, T/C (second compound 1 µM, first compound 0.001 µM): 103%
viability, T/C (second compound 1 µM, first compound 0.00316 µM): 112%
viability, T/C (second compound 1 µM, first compound 0.01 µM): 109%
viability, T/C (second compound 1 µM, first compound 0.0316 µM): 104%
viability, T/C (second compound 1 µM, first compound 0.1 µM): 94.5%
viability, T/C (second compound 3.16 µM, first compound 0.000316 µM): 101%
viability, T/C (second compound 3.16 µM, first compound 0.001 µM): 92%
viability, T/C (second compound 3.16 µM, first compound 0.00316 µM): 98.3%
viability, T/C (second compound 3.16 µM, first compound 0.01 µM): 97.7%
viability, T/C (second compound 3.16 µM, first compound 0.0316 µM): 101%
viability, T/C (second compound 3.16 µM, first compound 0.1 µM): 112%
viability, T/C (second compound 10 µM, first compound 0.000316 µM): 99.3%
viability, T/C (second compound 10 µM, first compound 0.001 µM): 106%
viability, T/C (second compound 10 µM, first compound 0.00316 µM): 97.1%
viability, T/C (second compound 10 µM, first compound 0.01 µM): 103%
viability, T/C (second compound 10 µM, first compound 0.0316 µM): 101%
viability, T/C (second compound 10 µM, first compound 0.1 µM): 110%
